Measurements: ChEMBL document CHEMBL3045678, “Synthesis of Some New Antimicrobial Thiadiazolyl and Oxadiazolyl Quinoline Derivatives” (2005)
Values after ≈ are worked out from the molar mass of the structure shown. Active and inactive are the calls of the source. No cut-off for these calls is given here.

Columns and labels:
Assay type in all cases: functional
[1] = system: Escherichia coli; experiment: Antimicrobial activity against Escherichia coli NCTC 10418 at 1 mg/ml after 24 hr by cup diffusion technique; conditions: for zone of inhibition at 1000 µg/mL: NCTC 10418, 24 h, read-out: DIZ
[2] = system: Staphylococcus aureus; experiment: Antimicrobial activity against Staphylococcus aureus ATCC 6538p at 1 mg/ml after 24 hr by cup diffusion technique; conditions: for zone of inhibition at 1000 µg/mL: read-out: DIZ
[3] = system: Pseudomonas aeruginosa; experiment: Antimicrobial activity against Pseudomonas aeruginosa ATCC 9027 after 24 hr by two-fold dilution method; conditions: ATCC 9027, 24 h
[4] = system: Staphylococcus aureus; experiment: Antimicrobial activity against Staphylococcus aureus ATCC 6538p after 24 hr by two-fold dilution method
[5] = system: Candida albicans; experiment: Antimicrobial activity against Candida albicans ATCC 10231 at 1 mg/ml after 24 hr by cup diffusion technique; conditions: for zone of inhibition at 1000 µg/mL: ATCC 10231, 24 h, read-out: DIZ
[6] = system: Pseudomonas aeruginosa; experiment: Antimicrobial activity against Pseudomonas aeruginosa ATCC 9027 at 1 mg/ml after 24 hr by cup diffusion technique; conditions: for zone of inhibition at 1000 µg/mL: ATCC 9027, 24 h, read-out: DIZ
[7] = system: Candida albicans; experiment: Antimicrobial activity against Candida albicans ATCC 10231 after 48 hr by two-fold dilution method

| Compound | zone of inhibition at 1000 µg/mL [1] | zone of inhibition at 1000 µg/mL [2] | zone of inhibition at 1000 µg/mL [6] | zone of inhibition at 1000 µg/mL [5] | further results |
| --- | --- | --- | --- | --- | --- |
| O=C(O)c1cn(C2CC2)c2cc(N3CCNCC3)c(F)cc2c1=O [CIPROFLOXACIN] | 30 mm | 25 mm | 40 mm |  | MIC [3]: 4 µg/mL (≈ 12.1 µM); MIC [4]: 2 µg/mL (≈ 6.04 µM); diameter of the inhibition zone (DIZ) [5]: inactive |
| CCSc1nnc(NC(=O)c2ccnc3ccccc23)s1 | 17 mm | 15 mm | 14 mm | 17 mm |  |
| Cc1cc(-c2nnc(S(=O)(=O)Cc3ccccc3)o2)c2ccccc2n1 | 18 mm | 16 mm |  | 19 mm | diameter of the inhibition zone (DIZ) [6]: inactive |
| c1ccc(CSc2nnc(-c3cc(-c4ccccc4)nc4ccccc34)o2)cc1 | 18 mm | 13 mm |  | 18 mm | diameter of the inhibition zone (DIZ) [6]: inactive |
| CSc1nnc(-c2cc(-c3ccccc3)nc3ccccc23)o1 | 18 mm | 12 mm | 13 mm | 18 mm |  |
| CCS(=O)(=O)c1nnc(-c2cc(C)nc3ccccc23)o1 | 19 mm | 16 mm | 16 mm | 24 mm | MBC ([7]; ATCC 10231, 48 h): 125 µg/mL (≈ 412 µM); MIC ([7]; ATCC 10231, 48 h): 125 µg/mL (≈ 412 µM) |
| O=C(Nc1nnc(SCc2ccccc2)s1)c1ccnc2ccccc12 | 18 mm | 15 mm | 17 mm | 19 mm |  |
| CS(=O)(=O)c1nnc(NC(=O)c2cc(-c3ccccc3)nc3ccccc23)s1 | 18 mm | 30 mm | 15 mm | 19 mm | MBC [4]: 31.2 µg/mL (≈ 76.1 µM); MIC [4]: 31.2 µg/mL (≈ 76.1 µM) |
| O=S(=O)(Cc1ccccc1)c1nnc(-c2cc(-c3ccccc3)nc3ccccc23)o1 | 18 mm | 12 mm |  | 19 mm | diameter of the inhibition zone (DIZ) [6]: inactive |
| CCS(=O)(=O)c1nnc(NC(=O)c2cc(C)nc3ccccc23)s1 | 17 mm | 13 mm | 13 mm | 18 mm |  |
| O=C(Nc1nnc(S(=O)(=O)Cc2ccccc2)s1)c1cc(-c2ccccc2)nc2ccccc12 | 19 mm | 20 mm | 14 mm | 18 mm | MBC [4]: 500 µg/mL (≈ 1030 µM); MIC [4]: 500 µg/mL (≈ 1030 µM) |
| CCS(=O)(=O)c1nnc(NC(=O)c2cc(-c3ccccc3)nc3ccccc23)s1 | 19 mm | 31 mm | 15 mm | 19 mm | MBC [4]: 125 µg/mL (≈ 294 µM); MIC [4]: 125 µg/mL (≈ 294 µM) |
| CCSc1nnc(-c2cc(C)nc3ccccc23)o1 | 19 mm | 15 mm |  | 19 mm | diameter of the inhibition zone (DIZ) [6]: inactive |
| CCSc1nnc(NC(=O)c2cc(C)nc3ccccc23)s1 | 18 mm | 17 mm | 14 mm | 18 mm |  |
| CS(=O)(=O)c1nnc(NC(=O)c2ccnc3ccccc23)s1 | 18 mm | 13 mm | 13 mm | 19 mm |  |
| CSc1nnc(NC(=O)c2ccnc3ccccc23)s1 | 18 mm | 17 mm | 15 mm | 19 mm |  |

| Compound | zone of inhibition at 1000 µg/mL [1] | zone of inhibition at 1000 µg/mL [2] | zone of inhibition at 1000 µg/mL [6] | zone of inhibition at 1000 µg/mL [5] | further results |
| --- | --- | --- | --- | --- | --- |
| Cc1cc(-c2nnc(S(C)(=O)=O)o2)c2ccccc2n1 | 18 mm | 19 mm | 13 mm | 27 mm | MBC ([7]; ATCC 10231, 48 h): 125 µg/mL (≈ 432 µM); MIC ([7]; ATCC 10231, 48 h): 31.2 µg/mL (≈ 108 µM) |
| O=C(Nc1nnc(SCc2ccccc2)s1)c1cc(-c2ccccc2)nc2ccccc12 | 16 mm | 13 mm | 15 mm | 18 mm |  |
| CSc1nnc(-c2cc(C)nc3ccccc23)o1 | 17 mm | 17 mm | 13 mm | 26 mm | MBC ([7]; ATCC 10231, 48 h): 125 µg/mL (≈ 486 µM); MIC ([7]; ATCC 10231, 48 h): 125 µg/mL (≈ 486 µM) |
| CCSc1nnc(NC(=O)c2cc(-c3ccccc3)nc3ccccc23)s1 | 19 mm | 15 mm | 20 mm | 18 mm | MBC [3]: 500 µg/mL (≈ 1270 µM); MIC [3]: 62.5 µg/mL (≈ 159 µM) |
| Cc1cc(C(=O)Nc2nnc(SCc3ccccc3)s2)c2ccccc2n1 | 18 mm | 15 mm | 17 mm | 24 mm | MBC ([7]; ATCC 10231, 48 h): 250 µg/mL (≈ 637 µM); MIC ([7]; ATCC 10231, 48 h): 250 µg/mL (≈ 637 µM) |
| CSc1nnc(NC(=O)c2cc(-c3ccccc3)nc3ccccc23)s1 | 16 mm | 15 mm | 20 mm | 18 mm | MBC [3]: > 500 µg/mL; MIC [3]: 250 µg/mL (≈ 661 µM) |
| CCS(=O)(=O)c1nnc(NC(=O)c2ccnc3ccccc23)s1 | 19 mm | 20 mm | 20 mm | 19 mm | MBC [3]: 125 µg/mL (≈ 359 µM); MIC [3]: 125 µg/mL (≈ 359 µM); MBC [4]: > 500 µg/mL; MIC [4]: 125 µg/mL (≈ 359 µM) |
| Cc1cc(-c2n[nH]c(=S)o2)c2ccccc2n1 | 18 mm | 20 mm | 12 mm | 18 mm | MBC [4]: > 500 µg/mL; MIC [4]: 62.5 µg/mL (≈ 257 µM) |
| CS(=O)(=O)c1nnc(-c2cc(-c3ccccc3)nc3ccccc23)o1 | 18 mm | 20 mm | 15 mm | 18 mm |  |
| Cc1cc(C(=O)Nc2nnc(S(=O)(=O)Cc3ccccc3)s2)c2ccccc2n1 | 19 mm | 28 mm | 13 mm | 19 mm | MBC [4]: > 500 µg/mL; MIC [4]: 62.5 µg/mL (≈ 147 µM) |
| CCSc1nnc(-c2cc(-c3ccccc3)nc3ccccc23)o1 | 18 mm |  | 15 mm | 19 mm | diameter of the inhibition zone (DIZ) [2]: inactive |
| NYSTATIN |  |  |  |  | diameter of the inhibition zone (DIZ) [1]: inactive; diameter of the inhibition zone (DIZ) [2]: inactive; MIC [7]: 25 µg/mL; inhibition zone (IZ) [5]: 37 mm; diameter of the inhibition zone (DIZ) [6]: inactive |
| O=C(Nc1nnc(S(=O)(=O)Cc2ccccc2)s1)c1ccnc2ccccc12 | 18 mm | 27 mm | 20 mm | 19 mm | MBC [3]: > 500 µg/mL; MIC [3]: 62.5 µg/mL (≈ 152 µM); MBC [4]: 500 µg/mL (≈ 1220 µM); MIC [4]: 125 µg/mL (≈ 305 µM) |
| Cc1cc(-c2nnc(SCc3ccccc3)o2)c2ccccc2n1 | 18 mm | 13 mm |  | 19 mm | diameter of the inhibition zone (DIZ) [6]: inactive |
| CCS(=O)(=O)c1nnc(-c2cc(-c3ccccc3)nc3ccccc23)o1 | 17 mm | 18 mm | 13 mm | 18 mm |  |
